Tests used:
Test in all cases: Tumor-associated kinase inhibition test
Assay type in all cases: biochemical
KDR(h) = molecular target: T1, KDR(h) (Homo sapiens, UniProt P35968); settings: read-out: Inhibitory rate (%)
T1 construct: purchased Eurofins Pharma Discovery Services UK Limited
Text: (§1) Eurofins Pharma Discovery Services UK Limited completed and reported this experiment.

CDK1/cyclinB(h) = molecular target: T2, CDK1/cyclinB(h) (Homo sapiens, UniProt P06493); settings: read-out: Inhibitory rate (%)
T2 construct: purchased Eurofins Pharma Discovery Services UK Limited (contract assay service)
Text: as §1

B-Raf(V599E)(h) = molecular target: T3, B-Raf(V599E)(h) (Homo sapiens, UniProt P15056, V600E); settings: read-out: Inhibitory rate (%)
T3 construct: purchased Eurofins Pharma Discovery Services UK Limited (contract assay service)
Text: as §1

PI3KC2γ(h) = molecular target: T4, PI3KC2γ(h) (Homo sapiens, UniProt O75747); settings: read-out: Inhibitory rate (%)
T4 construct: purchased Eurofins Pharma Discovery Services UK Limited (contract assay)
Text: as §1

DYRK2(h) = molecular target: T5, DYRK2(h) (Homo sapiens, UniProt Q92630); settings: read-out: Inhibitory rate (%)
T5 construct: purchased Eurofins Pharma Discovery Services UK Limited (contract testing)
Text: as §1

CaMKI(h) = molecular target: T6, CaMKI(h) (Homo sapiens, UniProt Q14012); settings: read-out: Inhibitory rate (%)
T6 construct: purchased Eurofins Pharma Discovery Services UK Limited (contract assay service)
Text: as §1

Lck(h)activated = molecular target: T7, Lck(h)activated (Homo sapiens, UniProt P06239); settings: read-out: Inhibitory rate (%)
T7 construct: purchased Eurofins Pharma Discovery Services UK Limited
Text: as §1

CDK3/cyclinE(h) = molecular target: T8, CDK3/cyclinE(h) (Homo sapiens, UniProt Q00526); settings: read-out: Inhibitory rate (%)
T8 construct: purchased Eurofins Pharma Discovery Services UK Limited (contract assay service)
Text: as §1

Rsk1(h) = molecular target: T9, Rsk1(h) (Homo sapiens, UniProt Q15418); settings: read-out: Inhibitory rate (%)
T9 construct: purchased Eurofins Pharma Discovery Services UK Limited
Text: as §1

Axl(h) = molecular target: T10, Axl(h) (Homo sapiens, UniProt P30530); settings: read-out: Inhibitory rate (%)
T10 construct: purchased Eurofins Pharma Discovery Services UK Limited (contract assay service)
Text: as §1

ALK(h) = molecular target: T11, ALK(h) (Homo sapiens, UniProt Q9UM73); settings: read-out: Inhibitory rate (%)
T11 construct: purchased Eurofins Pharma Discovery Services UK Limited (contract assay service)
Text: as §1

PI3Kinase(p110α/p85α)(h) = molecular target: T12, PI3Kinase(p110α/p85α)(h) (Homo sapiens, UniProt P42336); settings: read-out: Inhibitory rate (%)
T12 construct: purchased Eurofins Pharma Discovery Services UK Limited (contract assay)
Text: as §1

PKCη(h) = molecular target: T13, PKCη(h) (Homo sapiens, UniProt P24723); settings: read-out: Inhibitory rate (%)
T13 construct: purchased Eurofins Pharma Discovery Services UK Limited
Text: as §1

CaMKK2(h) = molecular target: T14, CaMKK2(h) (Homo sapiens, UniProt Q96RR4); settings: read-out: Inhibitory rate (%)
T14 construct: purchased Eurofins Pharma Discovery Services UK Limited (contract assay service)
T14 sequence (Q96RR4 whole entry): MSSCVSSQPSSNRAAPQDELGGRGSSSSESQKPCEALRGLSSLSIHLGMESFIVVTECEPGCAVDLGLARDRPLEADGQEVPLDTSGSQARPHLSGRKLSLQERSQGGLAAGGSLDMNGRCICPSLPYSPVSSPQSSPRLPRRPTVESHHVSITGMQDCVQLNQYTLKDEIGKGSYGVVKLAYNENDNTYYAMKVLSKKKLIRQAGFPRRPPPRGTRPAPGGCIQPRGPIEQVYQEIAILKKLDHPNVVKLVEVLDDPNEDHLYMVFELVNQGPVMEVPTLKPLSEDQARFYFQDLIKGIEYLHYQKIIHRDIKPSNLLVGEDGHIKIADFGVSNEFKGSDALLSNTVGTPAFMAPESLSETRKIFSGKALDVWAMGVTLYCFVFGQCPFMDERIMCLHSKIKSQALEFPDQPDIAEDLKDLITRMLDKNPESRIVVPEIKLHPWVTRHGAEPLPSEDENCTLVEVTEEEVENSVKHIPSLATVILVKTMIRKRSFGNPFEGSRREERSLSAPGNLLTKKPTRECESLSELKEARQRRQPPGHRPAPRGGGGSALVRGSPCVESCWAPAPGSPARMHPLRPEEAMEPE
Text: as §1

PDGFRα(h) = molecular target: T15, PDGFRα(h) (Homo sapiens, UniProt P16234); settings: read-out: Inhibitory rate (%)
T15 construct: purchased Eurofins Pharma Discovery Services UK Limited
Text: as §1

Ret(h) = molecular target: T16, Ret(h) (Homo sapiens, UniProt P07949); settings: read-out: Inhibitory rate (%)
T16 construct: purchased Eurofins Pharma Discovery Services UK Limited
Text: as §1

PKCγ(h) = molecular target: T17, PKCγ(h) (Homo sapiens, UniProt P05129); settings: read-out: Inhibitory rate (%)
T17 construct: purchased Eurofins Pharma Discovery Services UK Limited
Text: as §1

MEK1(h) = molecular target: T18, MEK1(h) (Homo sapiens, UniProt Q02750); settings: read-out: Inhibitory rate (%)
T18 construct: purchased Eurofins Pharma Discovery Services UK Limited
Text: as §1

PDK1(h) = molecular target: T19, PDK1(h) (Homo sapiens, UniProt O15530); settings: read-out: Inhibitory rate (%)
T19 construct: purchased Eurofins Pharma Discovery Services UK Limited
Text: as §1

CHK2(h) = molecular target: T20, CHK2(h) (Homo sapiens, UniProt O96017); settings: read-out: Inhibitory rate (%)
T20 construct: purchased Eurofins Pharma Discovery Services UK Limited (contract assay service)
Text: as §1

CDK6/cyclinD3(h) = molecular target: T21, CDK6/cyclinD3(h) (Homo sapiens, UniProt Q00534); settings: read-out: Inhibitory rate (%)
T21 construct: purchased Eurofins Pharma Discovery Services UK Limited (contract assay service)
Text: as §1

PKCι(h) = molecular target: T22, PKCι(h) (Homo sapiens, UniProt P41743); settings: read-out: Inhibitory rate (%)
T22 construct: purchased Eurofins Pharma Discovery Services UK Limited
Text: as §1

ZAP-70(h) = molecular target: T23, ZAP-70(h) (Homo sapiens, UniProt P43403); settings: read-out: Inhibitory rate (%)
T23 construct: purchased Eurofins Pharma Discovery Services UK Limited
Text: as §1

c-RAF(h) = molecular target: T24, c-RAF(h) (Homo sapiens, UniProt P04049); settings: read-out: Inhibitory rate (%)
T24 construct: purchased Eurofins Pharma Discovery Services UK Limited (contract testing)
T24 sequence (P04049 whole entry): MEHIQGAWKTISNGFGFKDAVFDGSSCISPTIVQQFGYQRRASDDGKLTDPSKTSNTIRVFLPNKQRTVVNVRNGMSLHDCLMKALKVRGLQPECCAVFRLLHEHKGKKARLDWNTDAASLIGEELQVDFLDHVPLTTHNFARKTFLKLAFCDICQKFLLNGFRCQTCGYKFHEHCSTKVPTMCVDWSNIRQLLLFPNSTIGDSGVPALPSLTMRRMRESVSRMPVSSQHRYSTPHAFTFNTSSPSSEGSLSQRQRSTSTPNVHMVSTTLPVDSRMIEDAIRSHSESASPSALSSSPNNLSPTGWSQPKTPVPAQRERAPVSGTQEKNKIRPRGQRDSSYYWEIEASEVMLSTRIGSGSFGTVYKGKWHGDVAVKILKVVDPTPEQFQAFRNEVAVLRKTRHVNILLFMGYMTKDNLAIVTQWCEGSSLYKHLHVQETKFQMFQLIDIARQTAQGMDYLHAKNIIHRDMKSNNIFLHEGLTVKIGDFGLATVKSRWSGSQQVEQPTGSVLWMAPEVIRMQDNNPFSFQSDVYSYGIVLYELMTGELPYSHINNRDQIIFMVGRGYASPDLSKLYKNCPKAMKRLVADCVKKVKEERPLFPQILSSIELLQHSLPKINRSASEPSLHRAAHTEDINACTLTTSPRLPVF
Text: as §1

CDK2/cyclinE(h) = molecular target: T25, CDK2/cyclinE(h) (Homo sapiens, UniProt P24941); settings: read-out: Inhibitory rate (%)
T25 construct: purchased Eurofins Pharma Discovery Services UK Limited (contract assay service)
Text: as §1

Pim-1(h) = molecular target: T26, Pim-1(h) (Homo sapiens, UniProt P11309); settings: read-out: Inhibitory rate (%)
T26 construct: purchased Eurofins Pharma Discovery Services UK Limited
T26 sequence (P11309 whole entry): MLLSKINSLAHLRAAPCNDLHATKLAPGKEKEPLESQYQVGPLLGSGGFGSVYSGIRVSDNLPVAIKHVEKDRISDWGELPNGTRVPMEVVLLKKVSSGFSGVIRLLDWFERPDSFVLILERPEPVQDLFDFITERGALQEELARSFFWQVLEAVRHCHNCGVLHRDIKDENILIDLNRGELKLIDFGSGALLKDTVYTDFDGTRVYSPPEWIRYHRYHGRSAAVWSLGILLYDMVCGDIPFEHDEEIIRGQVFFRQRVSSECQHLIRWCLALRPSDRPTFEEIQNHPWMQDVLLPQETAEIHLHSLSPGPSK
Text: as §1

FGFR3(h) = molecular target: T27, FGFR3(h) (Homo sapiens, UniProt P22607); settings: read-out: Inhibitory rate (%)
T27 construct: purchased Eurofins Pharma Discovery Services UK Limited (contract testing)
Text: as §1

Blk(h) = molecular target: T28, Blk(h) (Homo sapiens, UniProt P51451); settings: read-out: Inhibitory rate (%)
T28 construct: purchased Eurofins Pharma Discovery Services UK Limited (contract assay service)
Text: as §1

JNK1α1(h) = molecular target: T29, JNK1α1(h) (Homo sapiens, UniProt P45983); settings: read-out: Inhibitory rate (%)
T29 construct: purchased Eurofins Pharma Discovery Services UK Limited (contract testing)
T29 sequence (P45983 1-384 isoform P45983-2): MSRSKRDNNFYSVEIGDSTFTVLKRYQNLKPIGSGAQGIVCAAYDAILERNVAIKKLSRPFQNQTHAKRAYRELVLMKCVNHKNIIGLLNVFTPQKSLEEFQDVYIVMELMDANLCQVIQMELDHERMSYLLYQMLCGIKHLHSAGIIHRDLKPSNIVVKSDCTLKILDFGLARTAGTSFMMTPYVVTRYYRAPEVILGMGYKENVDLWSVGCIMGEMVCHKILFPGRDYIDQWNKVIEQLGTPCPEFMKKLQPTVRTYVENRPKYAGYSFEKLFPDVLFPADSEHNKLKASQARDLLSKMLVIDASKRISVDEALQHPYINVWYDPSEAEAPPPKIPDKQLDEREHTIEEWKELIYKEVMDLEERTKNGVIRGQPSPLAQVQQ
Text: as §1

Syk(h) = molecular target: T30, Syk(h) (Homo sapiens, UniProt P43405); settings: read-out: Inhibitory rate (%)
T30 construct: purchased Eurofins Pharma Discovery Services UK Limited
Text: as §1

PEK(h) = molecular target: T31, PEK(h) (Homo sapiens, UniProt Q9NZJ5); settings: read-out: Inhibitory rate (%)
T31 construct: purchased Eurofins Pharma Discovery Services UK Limited
Text: as §1

PAK2(h) = molecular target: T32, PAK2(h) (Homo sapiens, UniProt Q13177); settings: read-out: Inhibitory rate (%)
T32 construct: purchased Eurofins Pharma Discovery Services UK Limited
Text: as §1

IRAK1(h) = molecular target: T33, IRAK1(h) (Homo sapiens, UniProt P51617); settings: read-out: Inhibitory rate (%)
T33 construct: purchased Eurofins Pharma Discovery Services UK Limited (contract testing)
T33 sequence (P51617 whole entry): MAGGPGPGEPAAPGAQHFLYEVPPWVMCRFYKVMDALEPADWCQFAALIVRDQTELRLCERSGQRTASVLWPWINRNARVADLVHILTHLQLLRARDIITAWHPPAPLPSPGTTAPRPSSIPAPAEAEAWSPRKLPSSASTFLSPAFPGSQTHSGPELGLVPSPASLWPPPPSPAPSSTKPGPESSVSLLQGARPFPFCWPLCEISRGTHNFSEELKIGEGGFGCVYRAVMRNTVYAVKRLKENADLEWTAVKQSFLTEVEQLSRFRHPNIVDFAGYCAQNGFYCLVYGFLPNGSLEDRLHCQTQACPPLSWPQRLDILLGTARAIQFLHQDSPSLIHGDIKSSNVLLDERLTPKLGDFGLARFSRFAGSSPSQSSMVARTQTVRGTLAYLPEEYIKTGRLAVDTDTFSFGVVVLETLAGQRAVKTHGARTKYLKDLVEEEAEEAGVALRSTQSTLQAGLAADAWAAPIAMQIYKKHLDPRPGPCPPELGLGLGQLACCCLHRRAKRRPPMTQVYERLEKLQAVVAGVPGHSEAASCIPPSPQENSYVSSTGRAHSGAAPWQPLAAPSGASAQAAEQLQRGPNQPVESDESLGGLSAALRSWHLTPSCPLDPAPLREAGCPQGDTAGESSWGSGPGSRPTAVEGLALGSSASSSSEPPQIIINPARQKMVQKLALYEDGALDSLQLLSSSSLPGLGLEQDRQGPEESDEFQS
Text: as §1

PIP5K1γ(h) = molecular target: T34, PIP5K1γ(h) (Homo sapiens, UniProt O60331); settings: read-out: Inhibitory rate (%)
T34 construct: purchased Eurofins Pharma Discovery Services UK Limited (contract assay)
T34 sequence (O60331 whole entry): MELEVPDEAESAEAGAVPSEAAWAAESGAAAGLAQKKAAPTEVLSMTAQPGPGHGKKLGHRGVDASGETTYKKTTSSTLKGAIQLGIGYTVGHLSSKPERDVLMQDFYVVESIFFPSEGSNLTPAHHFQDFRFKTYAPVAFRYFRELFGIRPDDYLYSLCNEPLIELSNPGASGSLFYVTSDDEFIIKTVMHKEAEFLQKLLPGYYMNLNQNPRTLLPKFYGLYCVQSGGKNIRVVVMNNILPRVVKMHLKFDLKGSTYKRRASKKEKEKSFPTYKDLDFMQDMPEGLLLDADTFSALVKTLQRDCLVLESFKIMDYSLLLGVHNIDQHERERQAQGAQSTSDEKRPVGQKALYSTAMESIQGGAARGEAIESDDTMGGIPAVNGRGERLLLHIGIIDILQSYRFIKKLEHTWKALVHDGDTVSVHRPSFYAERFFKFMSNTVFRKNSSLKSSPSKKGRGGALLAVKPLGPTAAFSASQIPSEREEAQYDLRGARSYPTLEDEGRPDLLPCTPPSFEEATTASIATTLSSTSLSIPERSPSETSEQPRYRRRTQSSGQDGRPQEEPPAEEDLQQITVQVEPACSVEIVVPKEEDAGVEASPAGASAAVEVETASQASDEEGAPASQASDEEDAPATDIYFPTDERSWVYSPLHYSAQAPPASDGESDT
Text: as §1

JAK2(h) = molecular target: T35, JAK2(h) (Homo sapiens, UniProt O60674); settings: read-out: Inhibitory rate (%)
T35 construct: purchased Eurofins Pharma Discovery Services UK Limited (contract testing)
T35 sequence (O60674 whole entry): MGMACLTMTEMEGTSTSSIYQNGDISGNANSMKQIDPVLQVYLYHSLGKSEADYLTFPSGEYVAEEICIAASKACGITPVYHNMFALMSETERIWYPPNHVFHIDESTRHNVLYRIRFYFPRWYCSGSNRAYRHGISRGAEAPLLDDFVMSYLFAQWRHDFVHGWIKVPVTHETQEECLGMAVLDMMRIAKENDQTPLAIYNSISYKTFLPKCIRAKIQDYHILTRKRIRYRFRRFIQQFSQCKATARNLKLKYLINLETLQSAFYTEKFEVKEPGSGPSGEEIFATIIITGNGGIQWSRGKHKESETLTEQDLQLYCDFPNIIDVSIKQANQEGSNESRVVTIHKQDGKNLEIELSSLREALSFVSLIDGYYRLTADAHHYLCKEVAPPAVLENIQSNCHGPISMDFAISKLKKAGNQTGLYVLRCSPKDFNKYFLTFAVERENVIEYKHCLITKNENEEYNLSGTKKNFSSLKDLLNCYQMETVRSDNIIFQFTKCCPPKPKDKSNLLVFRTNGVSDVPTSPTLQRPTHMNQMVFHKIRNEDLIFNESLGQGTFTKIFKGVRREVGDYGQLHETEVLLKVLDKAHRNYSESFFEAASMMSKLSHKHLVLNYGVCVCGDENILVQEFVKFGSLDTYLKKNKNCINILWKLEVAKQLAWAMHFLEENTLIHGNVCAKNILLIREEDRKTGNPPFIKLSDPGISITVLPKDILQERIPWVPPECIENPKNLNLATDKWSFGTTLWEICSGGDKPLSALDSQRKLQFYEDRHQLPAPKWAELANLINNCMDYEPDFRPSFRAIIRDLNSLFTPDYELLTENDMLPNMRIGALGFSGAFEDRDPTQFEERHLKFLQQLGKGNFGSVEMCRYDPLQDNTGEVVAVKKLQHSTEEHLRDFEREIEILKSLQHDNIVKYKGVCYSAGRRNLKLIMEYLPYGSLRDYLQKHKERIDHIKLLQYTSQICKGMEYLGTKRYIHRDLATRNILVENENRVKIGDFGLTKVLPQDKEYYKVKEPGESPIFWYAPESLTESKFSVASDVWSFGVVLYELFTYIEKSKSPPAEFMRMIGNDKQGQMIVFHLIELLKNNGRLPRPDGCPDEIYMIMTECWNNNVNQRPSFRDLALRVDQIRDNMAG
Text: as §1

NEK2(h) = molecular target: T36, NEK2(h) (Homo sapiens, UniProt P51955); settings: read-out: Inhibitory rate (%)
T36 construct: purchased Eurofins Pharma Discovery Services UK Limited
Text: as §1

mTOR(h) = molecular target: T37, mTOR(h) (Homo sapiens, UniProt P42345)
T37 construct: purchased Eurofins Pharma Discovery Services UK Limited (contract assay)
Text: as §1

Fes(h) = molecular target: T38, Fes(h) (Homo sapiens, UniProt P07332); settings: read-out: Inhibitory rate (%)
T38 construct: purchased Eurofins Pharma Discovery Services UK Limited (contract testing)
Text: as §1

Aurora-A(h) = molecular target: T39, Aurora-A(h) (Homo sapiens, UniProt O14965); settings: read-out: Inhibitory rate (%)
T39 construct: purchased Eurofins Pharma Discovery Services UK Limited (contract assay service)
T39 sequence (O14965 whole entry): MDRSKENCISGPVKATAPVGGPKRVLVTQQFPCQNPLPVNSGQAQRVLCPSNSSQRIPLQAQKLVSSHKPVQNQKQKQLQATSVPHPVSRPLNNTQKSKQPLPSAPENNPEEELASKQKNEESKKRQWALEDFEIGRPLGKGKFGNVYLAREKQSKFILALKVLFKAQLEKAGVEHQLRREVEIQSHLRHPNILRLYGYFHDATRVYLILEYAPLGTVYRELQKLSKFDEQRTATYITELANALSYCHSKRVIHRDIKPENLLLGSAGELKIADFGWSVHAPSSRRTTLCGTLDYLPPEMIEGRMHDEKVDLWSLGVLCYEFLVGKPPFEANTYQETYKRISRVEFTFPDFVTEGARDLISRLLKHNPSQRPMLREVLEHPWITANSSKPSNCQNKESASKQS
Text: as §1

Structure (SMILES): C=C(C)n1c(=O)n(C(C)=O)c2ncc(Br)cc21 [FD162]
- inhibition at 10 µM (KDR(h)): -1%
- inhibition at 10 µM (CDK1/cyclinB(h)): 1%
- inhibition at 10 µM (B-Raf(V599E)(h)): -1%
- inhibition at 10 µM (PI3KC2γ(h)): 3%
- inhibition at 10 µM (DYRK2(h)): 1%
- inhibition at 10 µM (CaMKI(h)): -1%
- inhibition at 10 µM (Lck(h)activated): -1%
- inhibition at 10 µM (CDK3/cyclinE(h)): 7%
- inhibition at 10 µM (Rsk1(h)): 9%
- inhibition at 10 µM (Axl(h)): 24%
- inhibition at 10 µM (ALK(h)): 16%
- inhibition at 10 µM (PI3Kinase(p110α/p85α)(h)): -1%
- inhibition at 10 µM (PKCη(h)): 2%
- inhibition at 10 µM (CaMKK2(h)): 1%
- inhibition at 10 µM (PDGFRα(h)): -9%
- inhibition at 10 µM (Ret(h)): 7%
- inhibition at 10 µM (PKCγ(h)): 11%
- inhibition at 10 µM (MEK1(h)): -2%
- inhibition at 10 µM (PDK1(h)): -1%
- inhibition at 10 µM (CHK2(h)): 4%
- inhibition at 10 µM (CDK6/cyclinD3(h)): -1%
- inhibition at 10 µM (PKCι(h)): 11%
- inhibition at 10 µM (ZAP-70(h)): -5%
- inhibition at 10 µM (c-RAF(h)): -3%
- inhibition at 10 µM (CDK2/cyclinE(h)): 0%
- inhibition at 10 µM (Pim-1(h)): 3%
- inhibition at 10 µM (FGFR3(h)): 7%
- inhibition at 10 µM (Blk(h)): -5%
- inhibition at 10 µM (JNK1α1(h)): 4%
- inhibition at 10 µM (Syk(h)): 0%
- inhibition at 10 µM (PEK(h)): 0%
- inhibition at 10 µM (PAK2(h)): 8%
- inhibition at 10 µM (IRAK1(h)): 9%
- inhibition at 10 µM (PIP5K1γ(h)): -1%
- inhibition at 10 µM (JAK2(h)): 7%
- inhibition at 10 µM (NEK2(h)): -6%
- Selectivity among 114 tumor-associated kinases (mTOR(h); 10 μM, in words): selectively inhibit the activity of mTOR
- inhibition at 10 µM (mTOR(h); mTOR(h), read-out: Inhibitory rate (%)): 95%
- inhibition at 10 µM (Fes(h)): -8%
- inhibition at 10 µM (Aurora-A(h)): 1%

From patent US9738612B2, “Methylacryloyl benzimidazolone derivative and anti-tumour use thereof” (SHANGHAI NATURE STANDARD R&D AND BIOTECH CO., LTD, priority 2014, dated 2017)
